Reference: ChEMBL document CHEMBL2202956, “(±)-Tylopilusins, diphenolic metabolites from the fruiting bodies of Tylopilus eximius” (J Nat Prod, 2012)

What was measured:
[1] = tested on: Staphylococcus aureus; assay: Inhibition of yellow pigment production in methicillin-resistant Staphylococcus aureus at 20 ug/6mm disk after 68 hrs by paper disk method; assay type: functional
[2] = tested on: Staphylococcus aureus; assay: Toxicity in methicillin-resistant Staphylococcus aureus assessed as growth inhibition at 20 ug/6mm disk after 68 hrs; assay type: organism-based; settings: in vitro

## COC(=O)[C@@]1(O)C(c2ccc(O)cc2)=C(O)C(=O)[C@@]1(OC)c1ccc(O)cc1
[1]
  inhibition zone (IZ): 8 mm
[2]
  Activity: Non-toxic

## COC(=O)[C@]1(O)C(c2ccc(O)cc2)=C(O)C(=O)[C@]1(OC)c1ccc(O)cc1
[1]
  inhibition zone (IZ): 9 mm
[2]
  Activity: Non-toxic

## COC(=O)[C@@]1(O)C(c2ccc(O)cc2)=C(O)C(=O)[C@@]1(O)c1ccc(O)cc1
[1]
  inhibition zone (IZ): 7 mm
[2]
  Activity: Non-toxic

## COC(=O)[C@]1(O)C(c2ccc(O)cc2)=C(O)C(=O)[C@]1(O)c1ccc(O)cc1
[1]
  inhibition zone (IZ): 7 mm
[2]
  Activity: Non-toxic
